In one assay the target is T1, Adenosine deaminase (Bos taurus, UniProt P56658).
T1 sequence (P56658 whole entry): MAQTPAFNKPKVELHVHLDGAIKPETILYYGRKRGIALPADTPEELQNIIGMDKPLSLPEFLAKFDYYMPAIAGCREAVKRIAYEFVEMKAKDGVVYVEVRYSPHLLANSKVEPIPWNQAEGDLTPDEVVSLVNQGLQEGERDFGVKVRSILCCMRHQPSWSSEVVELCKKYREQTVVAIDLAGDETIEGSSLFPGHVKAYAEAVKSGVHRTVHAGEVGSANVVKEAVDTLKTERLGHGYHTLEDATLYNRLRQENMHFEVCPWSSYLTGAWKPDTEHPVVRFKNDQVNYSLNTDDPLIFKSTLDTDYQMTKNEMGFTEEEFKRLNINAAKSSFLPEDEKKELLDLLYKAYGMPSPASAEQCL
Briefly: Inhibition constant against calf intestinal adenosine deaminase; Not active.
By Ki is commonly meant the equilibrium dissociation constant of an inhibitor or competing ligand from its target. Low readings indicate tighter binding, high ones weaker binding. With `N=C(N)c1cn(C2O[C@H](CO)[C@@H](O)[C@H]2O)cn1` (stereo partly specified), the Ki entry was “Not Active”.

With `NC(=O)c1ccn(C2O[C@H](CO)[C@@H](O)[C@H]2O)c1` (stereo partly specified), the inhibition constant Ki result is “Not Active”.

As to `N=C(N)c1ncn(C2O[C@H](CO)[C@@H](O)[C@H]2O)c1N` (stereo partly specified), the Ki result is listed as “Not Active”.

As for `Nc1ccnc2c1ccn2C1O[C@H](CO)[C@@H](O)[C@H]1O` (stereo partly specified), the inhibition constant Ki result was “Not Active”.

For `Nc1ncnc2c1ccn2[C@@H]1O[C@H](CO)[C@@H](O)[C@H]1O` [TUBERCIDIN], the Ki result is listed as “Not Active”.

A further assay addresses T1, Adenosine deaminase. Briefly: Inhibition of calf intestinal adenosine deaminase.
In turn, `CCCCCCC(C(C)O)n1cnc(C(N)=O)c1` (stereo unspecified) displayed a Ki of 0.0353 µM.

The compound `CCCCCCC(C(C)O)n1cnc(C(N)=O)c1N` (stereo unspecified) displayed a Ki of 1.04 µM.

On to `CCCCCCC(C(C)O)n1cnc(C(=O)NCCC)c1` (stereo unspecified), for which the affinity corresponds to a Ki of 16 µM.

As for `CCCCCCC(C(C)O)n1cnc(C(=O)NC)c1` (stereo unspecified), the inhibition constant Ki stood at 0.368 µM.

With `CCCCCCC(C(C)O)n1cnc(C(=O)NCC)c1` (stereo unspecified), the inhibitory constant (Ki) is 17.9 µM.

For `CCCCCCC(C(C)O)n1cnc(C(=O)NC[C@@H](C)O)c1` (stereo partly specified), the inhibition constant Ki worked out at 32.1 µM.

`CCCCCCC(C(C)O)n1cnc(CO)c1` (stereo unspecified): the Ki is 2.52 µM.

For the compound `CCCCCCC(C(C)O)n1cnc(C(N)=O)c1Cl` (stereo unspecified), the inhibition constant Ki is 0.126 µM.

`CCCCCCC(C(C)O)n1cnc(C(=O)NC[C@H](C)O)c1` (stereo partly specified) returned an inhibitory constant (Ki) of 6.9 µM.

`CCCCCCC(C(C)O)n1cnc(C(=N)N)c1N` (stereo unspecified): the Ki turned out to be 10.6 µM.

As to `CCCCCCC(C(C)O)n1cnc(C(=O)NCc2ccccc2)c1` (stereo unspecified), the affinity corresponds to a Ki of 86 µM.

On to `CCCCCCC(C(C)O)n1cnc(C(=O)NCCO)c1` (stereo unspecified), for which the Ki came out at 0.93 µM.

As to `CCCCCCC(C(C)O)n1cnc(C(=O)OCC)c1N` (stereo unspecified), the affinity corresponds to a Ki of 347 µM.

In turn, `CCCCCCC(C(C)O)n1cnc(C(=N)S)c1` (stereo unspecified) yielded a Ki of 0.0471 µM.

Take `CCCCCCC(C(C)O)n1cnc(C(=O)N(C)C)c1` (stereo unspecified): the inhibitory constant (Ki) turned out to be 36.3 µM. Compared with the last compound, the Ki is about 770-fold higher.

For the compound `CCCCCCC(C(C)O)n1cnc(C(=O)NC2CCCC2)c1` (stereo unspecified), the affinity corresponds to a Ki of 41.1 µM.

For `CCCCCCC(C(C)O)n1cnc(C(=N)N)c1` (stereo unspecified), the affinity corresponds to a Ki of 2.56 µM.

`CCCCCCC(C(C)O)n1cnc(C(=O)O)c1` (stereo unspecified) returned a Ki of 39 µM.

Compound `CCCCCCC(C(C)O)n1cnc(CN)c1` (stereo unspecified) yielded an inhibition constant (Ki) of 4.02 µM.

For `CCCCCCC(C(C)O)n1cnc(C(=O)OCC)c1` (stereo unspecified), the Ki amounted to 66 µM.

On to `Nc1cccc2c1ncn2C1O[C@H](CO)[C@@H](O)[C@H]1O` (stereo partly specified), for which the affinity, expressed as Ki, was 110 µM.

These data come from ChEMBL document CHEMBL1125631, “Adenosine deaminase inhibitors: synthesis and structure-activity relationships of imidazole analogues of erythro-9-(2-hydroxy-3-nonyl)adenine” (J Med Chem, 1991).
